Where a name gives a salt, the structure may show the parent alone. Read-outs that look alike come from different tables or passages of the source.

In assay [1] the test system is isolated rat soleus muscles. Kind of assay: Recovery of nerve-stimulated force in isolated rat soleus muscles exposed to sub-maximal tubocurarine. The protocol: (§1) Experiments were performed using rat soleus muscles from either young (4-wk-old) or adult Wistar rats (12-14-week-old). Animal handling, killing and isolation of muscle is described elsewhere All experiments were performed using normal Krebs-Ringer bicarbonate solution (NKR). In solutions with elevated Mg^2+, MgCl2 was added to NKR-solution causing minor increases in osmolarity and ionic strength. In solutions with elevated K^+, 4 mM NaCl was replaced by 4 mM KCl in the NKR.
(§2) In all contraction experiments, isometric force production was determined and force produced during contractions was quantified by measuring the integral of the force response (AUC). Stimulation and force recordings have been described elsewhere. […] In these latter experiments, extracellular recordings of action potentials (M-waves) could be measured without temporal overlap with stimulation artefacts.
The aim was to find compounds that by inhibition of CIC-1 channels can recover nerve-stimulated force under conditions of fatigue including conditions where fatigue is caused by compromised neuromuscular transmission. Neuromuscular transmission dysfunction can develop because of both pre- and/or post-synaptic complications in connection with a disorder or as part of neuromuscular blockade during/after surgery. In the initial series of drug testing, experiments were performed with isolated muscles in the presence of sub-maximal ACh receptor antagonist tubocurarine. Since the inclusion of tubocurarine caused a partial loss of neuromuscular transmission this experiment mimics the conditions in myasthenia gravis and neuromuscular blockade. To mimic conditions with pre-synaptic complication (Lambert Eaton syndrome, motor neuron disorder, polyneuropathy) the intact nerve-muscle preparations were incubated at elevated extracellular Mg^2+, which is known to suppress release of ACh from nerve terminals of motor neurons.
To identify CIC-1 inhibitors that could be used for treatment of neuromuscular disorders we repeated the experiment shown in FIG. 2A but instead of adding 9-AC we added the compounds of interest in different concentrations within the range from 10 to 500 μM. […] For comparison with the muscle only exposed to tubocurarine (grey trace), the two traces have been overlaid. […] For comparison, muscles only exposed to tubocurarine have been included. The dotted line indicates the recovery of force with C8 when compared to the force production before its addition. This value was used in Table 1 for evaluation of the efficacy of the different compounds in recovering force.

Assay [2] has as its target T1, human CIC-1 channels (Homo sapiens, UniProt P35523).
T1 construct: host or cells: CHO (Chinese hamster ovary) cells
As to the kind of experiment: Automated patch-clamp on human CIC-1 expressed in CHO cells. The assay is classed as cell-based. The note with it: compound added to the intracellular solution vs vehicle control patches; positive shift reflects CIC-1 inhibition. As to the method:
The investigatory goal of these experiments was to evaluate how compounds affect the open probability and current amplitude of human CIC-1 channels expressed in CHO cells. Experiments were performed using an automated patch clamp system that allowed high throughput testing of whole cell patches together with both intracellular and extracellular addition of compound.
Automated whole cell patch clamp experiments were performed with the Qpatch 16 system (Sophion Bioscience, Ballerup, Denmark) at room temperature. Data acquisition and analysis were performed in the Qassay software (ver. 5.6, Odense).
To evoke CIC-1 currents in whole cell patches, the membrane potential was initially stepped from a holding potential of −30 mV to +60 mV for 100 ms and then to various test voltages (sweeps) ranging from +120 mV to −140 mV in steps of 20 mV for 300 ms. To obtain tail currents, the membrane potential was stepped to −100 mV after each test voltage for 300 ms and then relaxed to −30 mV for 2 sec between sweeps (FIG. 3). I/V relationships for whole cell instant and steady state current amplitudes were obtained by plotting average current densities at the beginning and at the end of the 300 ms step against the membrane potential (FIG. 4).
In order to determine the relative overall open probability (P0), the instantaneous tail currents were normalized to the maximal tail current obtained following the most positive voltage step and plotted against the test voltage. Plots of normalized tail currents from each whole cell patch were then fitted to a Boltzmann function allowing determination of half activation voltages (V1/2, FIG. 5).
For automated patch clamp experiments extracellular solutions contained: 2 mM CaCl2, 1 mM MgCl2, 10 mM HEPES, 4 mM KCl, 145 mM NaCl, 10 mM Glucose, pH adjusted to 7.4 with NaOH (2 M). Osmolality adjusted to ˜320 using sucrose.
Intracellular solutions contained: 80 mM CsF, 60 mM CsCl, 5/1 mM KOH/EGTA, 10 mM HEPES, 10 mM NaCl, pH adjusted to 7.2 with NaOH (2 M). Osmolality adjusted to ˜320 mOsm using sucrose.
Cells used in patch clamp experiments were Chinese hamster ovary cells (CHO) constitutively expressing human CIC-1 channels. The amino acid sequence encoded by the cDNA used to create this cell line was identical to the translated sequence for GenBank accession number NM_000083.2. Cells were produced by Charles River (Catalogue CT6175, Cleveland Ohio, USA) in a cryopreserved format. Experiments were performed on the cells directly after thawing (3×10^6 cells used in each experiment).
To evaluate the compound effect on CIC-1, when applied directly to the intracellular side of the cell membrane, the half activation voltage, V1/2, was determined from whole cell patches with compound added to the intracellular solution and then compared to V1/2 determined from control cell patches with only vehicle added to the intracellular solution. Additionally, the effect of extracellular added compound was evaluated by determine V1/2 and steady state current amplitudes before and after exchanging the extracellular solution to contain compound.
The difference in half activation voltage of CIC-1 channels, […]V1/2, was determined as the difference between the cell patches treated intracellularly with compound and control cells patches and is reported in Table 4 below. A positive shift in […]V1/2 is reflecting CIC-1 channel inhibition by the tested compound. P-values of <0.05 is considered significant.
On the technique in general: Patch clamp records ionic current or voltage across a cell membrane.

In assay [3] the target is rat soleus muscles. As to the kind of experiment: Tubocurarine concentration required to depress nerve-stimulated force by 50% (Kd,tub), combination with acetylcholinesterase inhibitors. The protocol: FIGS. 5A-5E. […] Muscles from 4-week-old rats were stimulated to contract by activating the motor nerve with short duration pulses in field stimulation. Muscles contracted every 10 min for 2 s in response to 30 Hz stimulation. Four different experimental conditions were used. […] After this pre-incubation, increasing concentrations of tubocurarine were added to the bath solutions with 60 min (corresponding to six contractions) between each increase in tubocurarine. […] FIG. 5C similar to FIG. 5A but this muscle had been pre-incubated with neostigmine. […] The force integral (AUC) was determined at each tubocurarine concentration. Such AUC determinations were plotted against tubocurarine concentration for each muscle.
CIC-1 is a novel target in treatment of neuromuscular complications and it was therefore explored whether this approach for symptomatic treatment could be used in combination with existing symptomatic treatment approaches. In myasthenia gravis, which in isolated muscles was mimicked by tubocurarine, the symptoms of muscle fatigue are most commonly treated with inhibitors of acethylcholineesterase of which neostigmine and pyridostigmine are examples. Also, neostigmine is the most commonly used reversal agent of neuromuscular blocked after surgery. […] FIG. 5A-D show recordings of nerve-stimulated force production at different tubocurarine concentrations when tested under the four experimental conditions. […] To quantify the effect of compounds on tubocurarine sensitivity, the force at the different tubocurarine concentrations was determined. In plots of nerve-stimulated force against tubocurarine concentration (FIG. 5E) Kd,tub was determined by fitting four parameter sigmoidal functions to the data and the Kd,tub for the different compounds have been collected in Table 4.

The subject of assay [4] is isolated rat soleus muscles. As to the kind of experiment: Recovery of nerve-stimulated force in isolated rat soleus muscles at elevated extracellular Mg2+ (3.5 mM). As to the method: as §1, §2
The aim was to find compounds that by inhibition of CIC-1 channels can recover nerve-stimulated force under conditions of fatigue including conditions where fatigue is caused by compromised neuromuscular transmission. […]
The next series of experiments determined whether the compounds that recovered nerve-stimulated force in the presence of tubocurarine could also recover nerve-stimulated force at elevated extracellular Mg^2+.

Assay [5] addresses rat soleus muscles. As to the kind of experiment: Mg2+ concentration required to depress nerve-stimulated force by 50% (Kd,Mg2+), combination with 3,4-AP. The note with it: 3,4-AP (10 μM) alone. The protocol: FIGS. 6A-6E. […] Muscles from 4-week-old rats were stimulated to contract by activating the motor nerve with short duration pulses in field stimulation. Muscles contracted every 10 min for 2 s in response to 30 Hz stimulation. Four different experimental conditions were used. […] C) similar to A) but this muscle had been pre-incubated with 3,4-AP. […] The force integral (AUC) was determined at each extracellular Mg^2+ concentration. AUC was plotted against Mg^2+ concentration and the data was fitted to a sigmoidal function. This provided the extracellular Mg^2+ concentration that was required to reduce the nerve-stimulated force to 50% (Mg50) under the four different conditions (see Table 5).
While the use of tubocurarine mimics conditions with reduced neuromuscular transmission due to post-synaptic dysfunction (myasthenia gravis, neuromuscular blockade), the experiments with elevated extracellular Mg^2+ mimics conditions with pre-synaptic dysfunction akin to a range of neuromuscular disorders including Lambert Eaton syndrome, motor neuron disorders and polyneuropathy. Patients with Lambert Eaton syndrome are commonly treated with inhibitors of voltage gated K^+ channels such as 3,4-diaminopyridine (3,4-AP). Based on this it was determined whether recovery of nerve-stimulated force at elevated extracellular Mg^2+ with CIC-1 inhibiting compounds could be added to force recovery with 3,4-AP. […] FIG. 6A-D show recordings of nerve-stimulated force production at different Mg^2+ concentrations when tested under these four experimental conditions. […] To quantify the effect of compounds on Mg^2+ sensitivity the force at the different Mg^2+ concentrations was determined. In plots of nerve-stimulated force against Mg^2+ concentration (FIG. 6E) the Kd,Mg^2+ was determined by fitting four parameter sigmoidal function to the data. Kd, Mg^2+ for the different compounds have been collected in Table 5.

[6] abbreviates: Rattus norvegicus, 40 min; read-out: 50 μM % change after addition.

T1 sequence (P35523 whole entry): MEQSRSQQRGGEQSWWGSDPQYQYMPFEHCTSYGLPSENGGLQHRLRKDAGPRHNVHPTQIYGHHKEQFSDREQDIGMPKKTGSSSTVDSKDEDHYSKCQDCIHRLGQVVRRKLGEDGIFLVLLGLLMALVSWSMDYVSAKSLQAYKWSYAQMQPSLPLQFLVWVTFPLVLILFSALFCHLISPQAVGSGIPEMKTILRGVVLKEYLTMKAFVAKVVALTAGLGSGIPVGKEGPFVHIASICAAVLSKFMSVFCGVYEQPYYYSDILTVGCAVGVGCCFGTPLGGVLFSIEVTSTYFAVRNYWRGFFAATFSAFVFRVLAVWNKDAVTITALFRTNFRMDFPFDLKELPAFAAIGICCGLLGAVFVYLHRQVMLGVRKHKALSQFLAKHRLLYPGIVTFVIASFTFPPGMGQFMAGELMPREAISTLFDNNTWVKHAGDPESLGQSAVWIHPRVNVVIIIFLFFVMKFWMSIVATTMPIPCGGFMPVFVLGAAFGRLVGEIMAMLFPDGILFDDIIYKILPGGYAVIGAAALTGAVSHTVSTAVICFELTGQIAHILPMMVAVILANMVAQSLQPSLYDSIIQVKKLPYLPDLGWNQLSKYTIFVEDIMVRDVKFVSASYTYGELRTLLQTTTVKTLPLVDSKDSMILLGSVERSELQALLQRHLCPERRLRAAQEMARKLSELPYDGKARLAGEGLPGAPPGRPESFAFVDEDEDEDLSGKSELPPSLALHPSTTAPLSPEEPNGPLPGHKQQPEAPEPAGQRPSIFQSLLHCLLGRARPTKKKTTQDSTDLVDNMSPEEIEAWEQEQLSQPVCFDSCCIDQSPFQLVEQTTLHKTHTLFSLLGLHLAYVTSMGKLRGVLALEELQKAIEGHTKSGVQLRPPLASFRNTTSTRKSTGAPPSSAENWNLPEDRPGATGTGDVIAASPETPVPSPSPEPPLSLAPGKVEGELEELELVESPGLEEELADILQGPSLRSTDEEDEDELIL

In the case of `C[C@H](OCc1ccccc1)C(=O)O` [Compound C5, (2S)-2-(benzyloxy)propanoic acid], the activation at 50 µM in assay [1] (setting [6]) is -7%.
Same read-out and setting: under `CC(C(=O)O)S(=O)(=O)c1ccc(F)cc1` (centres unmarked) [Compound C6, 2-(4-fluorobenzenesulfonyl)propanoic acid] stands -11%; under `COCC(C)C(Oc1ccc(Br)cc1)C(=O)O` (centres unmarked) [Compound C21, 2-(4-bromophenoxy)-4-methoxy-3-methylbutanoic acid], -3%.
For `C=Cc1cc(Br)ccc1O[C@@H](C)C(=O)O` [Compound A-17, (2S)-2-(4-bromo-2-ethenylphenoxy)propanoic acid], the ΔV½ in assay [2] came out at 10.3 mV.
For `NCC(Oc1ccc(F)cc1)C(=O)O` (centres unmarked) [Compound C9, 3-amino-2-(4-fluorophenoxy)propanoic acid hydrochloride], in assay [1] (setting [6]), the activation at 50 µM was -14%.
The Kd is the free concentration of one partner at which half of the binding sites on the other are occupied at equilibrium, for simple one-to-one binding. `CN(C)C(=O)Oc1cccc([N+](C)(C)C)c1` [Neostigmine, neostigmine, reference compound]: the dissociation constant Kd in assay [3] (Neostigmine (10 nM) alone) was 0.166 ± 0.013 µM.
Consider `CCC(=O)c1cc(Cl)ccc1O[C@@H](C)C(=O)O` [Compound A-30, (2S)-2-(4-chloro-2-propanoylphenoxy)propanoic acid], for which, in assay [2], the ΔV½ turned out to be 6.2 mV.
As for `C#Cc1cc(Cl)ccc1O[C@@H](C)C(=O)O` [Compound A-20, (2S)-2-(4-chloro-2-ethynylphenoxy)propanoic acid], the ΔV½ in assay [2] was found to be 26.4 mV.
Still for that read-out and setting: next, `C#Cc1cc(Br)ccc1O[C@@H](C)C(=O)O` [Compound A-19, (2S)-2-(4-bromo-2-ethynylphenoxy)propanoic acid]: 7.7 mV.
Consider `CCC(Oc1ccc(Cl)cc1)C(=O)O` (centres unmarked) [Compound C7, 2-(4-chlorophenoxy)butanoic acid], for which, in assay [1] (setting [6]), the activation at 50 µM was -12%.
Regarding `CC(Oc1ccc(Cl)cc1)C(=O)Oc1ccc(Cl)cc1` (centres unmarked) [Compound C11, 4-chlorophenyl 2-(4-chlorophenoxy)propanoate], the activation at 50 µM in assay [1] (Rattus norvegicus, 40 min, read-out: 50 μM % change after addition) worked out at 46%.
With `C[C@H](Oc1ccc(Br)cc1C=C(F)F)C(=O)O` [Compound A-36, (2S)-2-[4-bromo-2-(2,2-difluoroethenyl)phenoxy]propanoic acid], the ΔV½ in assay [2] was determined as 21.5 mV.
Consider `O=C(O)c1c2ccccc2cc2ccccc12` [Compound 9-AC, 9-anthracenecarboxylic acid, reference compound], for which the “recovery of force and M-wave signal” value in assay [1] (tubocurarine) was “marked recovery of both force and M-wave signal”; in assay [4] it was “marked recovery of both force and M-wave signal”.
Turning to `C[C@H](Oc1ccc(Cl)cc1C1CC1)C(=O)O` [Compound A-4, (2S)-2-(4-chloro-2-cyclopropylphenoxy)propanoic acid], in assay [2], the ΔV½ is given as 8.8 mV.
`CN(C)C(=O)Oc1ccc[n+](C)c1` [Pyridostigmine, pyridostigmine, reference compound]: in assay [3] (Pyridostigmine (100 nM) alone), the Kd came to 0.127 ± 0.015 µM.
For the compound `Nc1ccncc1N` [3,4-AP, 3,4-diaminopyridine, reference compound], the Kd in assay [5] was 5800 ± 300 µM.
